Measured values published in PubChem BioAssay AID1259407 (Chemical Carcinogenesis Research Information System (CCRIS), 2018).
The source made the active and inactive calls. The rule behind the calls is not given here.

Tested on: CCRIS mutagenicity, Ames/micronucleus/aberration tests
Assay: CCRIS mutagenicity studies
[1] = Test System: AMES SALMONELLA TYPHIMURIUM, Strain/Indicator: TA98, Metabolic Activation: HAMSTER, LIVER, S-9, AROCLOR 1254 (10%), Method: PREINCUBATION
[2] = Test System: AMES SALMONELLA TYPHIMURIUM, Strain/Indicator: TA98, Metabolic Activation: NONE, Method: PREINCUBATION
[3] = Test System: AMES SALMONELLA TYPHIMURIUM, Strain/Indicator: TA98, Metabolic Activation: RAT, LIVER, S-9, AROCLOR 1254 (10%), Method: PREINCUBATION
[4] = Test System: AMES SALMONELLA TYPHIMURIUM, Strain/Indicator: TA100, Metabolic Activation: HAMSTER, LIVER, S-9, AROCLOR 1254 (10%), Method: PREINCUBATION
[5] = Test System: AMES SALMONELLA TYPHIMURIUM, Strain/Indicator: TA100, Metabolic Activation: NONE, Method: PREINCUBATION
[6] = Test System: AMES SALMONELLA TYPHIMURIUM, Strain/Indicator: TA100, Metabolic Activation: RAT, LIVER, S-9, AROCLOR 1254 (10%), Method: PREINCUBATION
[7] = Test System: AMES SALMONELLA TYPHIMURIUM, Strain/Indicator: TA1535, Metabolic Activation: HAMSTER, LIVER, S-9, AROCLOR 1254 (10%), Method: PREINCUBATION
[8] = Test System: AMES SALMONELLA TYPHIMURIUM, Strain/Indicator: TA1535, Metabolic Activation: NONE, Method: PREINCUBATION
[9] = Test System: AMES SALMONELLA TYPHIMURIUM, Strain/Indicator: TA1535, Metabolic Activation: RAT, LIVER, S-9, AROCLOR 1254 (10%), Method: PREINCUBATION
[10] = Test System: AMES SALMONELLA TYPHIMURIUM, Strain/Indicator: TA1537, Metabolic Activation: NONE, Method: PREINCUBATION
[11] = Test System: AMES SALMONELLA TYPHIMURIUM, Strain/Indicator: TA1538, Metabolic Activation: NONE, Method: PREINCUBATION
[12] = Test System: AMES SALMONELLA TYPHIMURIUM, Strain/Indicator: TA97, Metabolic Activation: NONE, Method: PREINCUBATION

SMILES | mutagenic call [1] | mutagenic call [2] | mutagenic call [3] | mutagenic call [4] | mutagenic call [5] | mutagenic call [6] | mutagenic call [7] | mutagenic call [8] | mutagenic call [9] | mutagenic call [10] | mutagenic call [11] | mutagenic call [12] | also measured
C=C[Si](OCC)(OCC)OCC | inactive; negative | inactive; negative | inactive; negative | inactive; negative | inactive; negative | inactive; negative | inactive; negative | inactive; negative | inactive; negative | inactive; negative | inactive; negative | – | mutagenic call (Test System: AMES SALMONELLA TYPHIMURIUM, Strain/Indicator: TA1537, Metabolic Activation: HAMSTER, LIVER, S-9, AROCLOR 1254 (10%), Method: PREINCUBATION): inactive; negative; mutagenic call (Test System: AMES SALMONELLA TYPHIMURIUM, Strain/Indicator: TA1537, Metabolic Activation: RAT, LIVER, S-9, AROCLOR 1254 (10%), Method: PREINCUBATION): inactive; negative; mutagenic call (Test System: AMES SALMONELLA TYPHIMURIUM, Strain/Indicator: TA1538, Metabolic Activation: HAMSTER, LIVER, S-9, AROCLOR 1254 (10%), Method: PREINCUBATION): inactive; negative; mutagenic call (Test System: AMES SALMONELLA TYPHIMURIUM, Strain/Indicator: TA1538, Metabolic Activation: RAT, LIVER, S-9, AROCLOR 1254 (10%), Method: PREINCUBATION): inactive; negative; mutagenic call (Test System: Mouse lymphoma, Strain/Indicator: L5178Y (tk+/tk-), Metabolic Activation: None, Method: Suspension/plate): inactive; negative; mutagenic call (Test System: Mouse lymphoma, Strain/Indicator: L5178Y (tk+/tk-), Metabolic Activation: Rat, Liver, S-9, Aroclor 1254, Method: Suspension/plate): inactive; negative
CSC[C@H](NC(=O)C(C)(C)SC)C(=O)O | – | inactive; negative | – | – | inactive; negative | – | – | inactive; negative | – | inactive; negative | inactive; negative | – | mutagenic call (Test System: E. COLI, Strain/Indicator: WP2, Metabolic Activation: NONE, Method: PREINCUBATION): inactive; negative; mutagenic call (Test System: E. COLI, Strain/Indicator: WP2 UVRA, Metabolic Activation: NONE, Method: PREINCUBATION): inactive; negative
OCCCBr | inactive; negative | inactive; negative | inactive; negative | active; positive | active; positive | active; positive | active; positive | active; positive | active; positive | – | – | inactive; negative | mutagenic call (Test System: AMES SALMONELLA TYPHIMURIUM, Strain/Indicator: TA97, Metabolic Activation: HAMSTER, LIVER, S-9, AROCLOR 1254 (10%), Method: PREINCUBATION): inactive; negative; mutagenic call (Test System: AMES SALMONELLA TYPHIMURIUM, Strain/Indicator: TA97, Metabolic Activation: RAT, LIVER, S-9, AROCLOR 1254 (10%), Method: PREINCUBATION): inactive; negative
O=CC1=CCCC2CC12C=O (stereo unspecified) | – | – | – | – | – | – | – | – | – | – | – | – | mutagenic call (Test System: AMES SALMONELLA TYPHIMURIUM, Strain/Indicator: TA98, Metabolic Activation: NONE, Method: STANDARD PLATE): active; positive; mutagenic call (Test System: AMES SALMONELLA TYPHIMURIUM, Strain/Indicator: TA100, Metabolic Activation: NONE, Method: STANDARD PLATE): active; positive
Cc1c[nH]c(=S)[nH]c1=O | – | inactive; negative | – | – | inactive; negative | – | – | inactive; negative | – | – | – | inactive; negative | mutagenic call (Test System: AMES SALMONELLA TYPHIMURIUM, Strain/Indicator: TA97, Metabolic Activation: HAMSTER, LIVER, S-9, AROCLOR 1254 (10 OR 30%), Method: PREINCUBATION): inactive; negative; mutagenic call (Test System: AMES SALMONELLA TYPHIMURIUM, Strain/Indicator: TA97, Metabolic Activation: RAT, LIVER, S-9, AROCLOR 1254 (10 OR 30%), Method: PREINCUBATION): inactive; negative; mutagenic call (Test System: AMES SALMONELLA TYPHIMURIUM, Strain/Indicator: TA98, Metabolic Activation: HAMSTER, LIVER, S-9, AROCLOR 1254 (10 OR 30%), Method: PREINCUBATION): inactive; negative; mutagenic call (Test System: AMES SALMONELLA TYPHIMURIUM, Strain/Indicator: TA98, Metabolic Activation: RAT, LIVER, S-9, AROCLOR 1254 (10 OR 30%), Method: PREINCUBATION): inactive; negative; mutagenic call (Test System: AMES SALMONELLA TYPHIMURIUM, Strain/Indicator: TA100, Metabolic Activation: HAMSTER, LIVER, S-9, AROCLOR 1254 (10 OR 30%), Method: PREINCUBATION): inactive; negative; mutagenic call (Test System: AMES SALMONELLA TYPHIMURIUM, Strain/Indicator: TA100, Metabolic Activation: RAT, LIVER, S-9, AROCLOR 1254 (10 OR 30%), Method: PREINCUBATION): inactive; negative; mutagenic call (Test System: AMES SALMONELLA TYPHIMURIUM, Strain/Indicator: TA1535, Metabolic Activation: HAMSTER, LIVER, S-9, AROCLOR 1254 (10 OR 30%), Method: PREINCUBATION): inactive; negative; mutagenic call (Test System: AMES SALMONELLA TYPHIMURIUM, Strain/Indicator: TA1535, Metabolic Activation: RAT, LIVER, S-9, AROCLOR 1254 (10 OR 30%), Method: PREINCUBATION): inactive; negative
CCN(C(C)OC(C)=O)[N+](=O)[O-] (stereo unspecified) | – | – | – | – | – | – | – | – | – | – | – | – | mutagenic call (Test System: E. COLI, Strain/Indicator: WP2 (HCR-), Metabolic Activation: NONE): active; positive
